{
  "source": "patent US20240141330A1",
  "about": "“METHODS AND COMPOSITIONS FOR MUTAGENESIS SCREENING IN MAMMALIAN CELLS” (THE BOARD OF REGENTS OF THE UNIVERSITY OF TEXAS SYSTEM, priority 2021, published 2024)",
  "tested_on": "K562 cells harboring doxycycline-inducible BCR-ABL1 variants",
  "conditions": "FIG. 7C",
  "excerpt": "Values shown are averages±standard error of the mean (SEM) of 2 biological replicates.\nFor this example, the K562 CML cell line was used as it harbored the BCR-ABL1 fusion gene/protein and was highly sensitive to BCR-ABL1 inhibitors.\nLentiMutate may create large and small indels because the HIV-1 RT is known to switch templates and have low processivity. […] As a comparison, also tested was the 35INS variant, a BCR-ABL variant detected in patient samples that truncates BCR-ABL at the end of the kinase domain, producing a kinase dead protein, due to the insertion and usage of a 35 bp sequence in an intron that acts as a novel splicing site.",
  "note": "Where two headings read alike, the source gives them in different places.",
  "data": [
    {"compound": "O=C(Nc1ccc(OC(F)(F)Cl)cc1)c1cnc(N2CC[C@@H](O)C2)c(-c2cc[nH]n2)c1", "note": "[asciminib]", "values": [
      {"measurement": "Resistance conferred by BCR-ABL1 variant", "setting": "deletions in ABL1 (−SV11)", "value": "did not"},
      {"measurement": "Resistance conferred by BCR-ABL1 variant", "setting": "deletions in BCR (−SV8 and −NTCD)", "value": "conferred resistance"}
    ]}
  ]
}
